Holding throughout (assay type): cell-based, human
The subject of assay [1] is MCP-1 induced THP-1 migration. Briefly: THP-1 trans-well migration assay, MCP-1 as chemoattractant. As to the method: (§1) To determine whether an agent inhibits a chemokine-induced activity, such as macrophage recruitment, varying amounts of the agent are mixed with cells in the presence of a known chemoattractant. For example, a range of known concentrations of an agent, e.g., a chemokine peptide, is incubated with a defined number (e.g., 10^4-10^6) of human THP-1 monocyte cells in individual wells of the top compartment of a trans-well plate. Chemokine (such as MCP-1, MIP1α, IL8 or SDF-1α), at a concentration known to cause significant migration of THP-1 cells in the trans-well migration assay, is placed in the lower compartment (FIG. 1). Cells are then incubated at 37° C. for a period sufficient to allow migration, e.g., 4 hours. After incubation, the cells are gently removed from the top of the filter with a pipette, 20 μl of 20 mM EDTA in simple PBS is added into each top well, and incubated for 20 minutes at 4° C. The filter is carefully flushed with media using a gentle flow, and removed. A standard curve consisting of a two-fold dilution series of THP-1 cells (in 29 μl) is prepared to accurately quantify the number of cells that have migrated. Migrated cells are stained with 3 μl of MTT stock dye solution which is added directly into each well (5 mg/ml in RPMI-1640 without phenol red, Sigma Chemical Co.) and incubated at 37° C. for 4 hours. The media is carefully aspirated from each well, and the converted dye is solubilized by 20 μl of DMSO. Absorbance of converted dye is measured at a wavelength of 595 nm using an ELISA plate reader. The number of migrated cells in each well is then determined by interpolation of the standard curve (see also Imai et al., J. Biol. Chem., 272, 15036 (1997)).
(§2) For this assay, THP-1 cells were maintained at a density of 4×10^5 cells per ml in RPMI-1640 supplemented with 10% fetal calf serum+20 μM 2-mercaptoethanol. Chemotaxis was induced in a 96-well disposable chemotaxis chamber fitted with a […] polycarbonate filter (PVP free, ChemoTX, Neuroprobe Inc., Cabin John). Twenty-nine μl of chemoattractant (recombinant human chemokine; 50 ng/ml, i.e., 5.9 nM) or control (100 ng/ml TGFβ) was added to the lower compartment of each well. The framed filter was aligned with the holes in the corner of the filter frame and placed over the wells. Five×10^4 THP-1 cells in 25 μl of RPMI-1640 were added to the upper compartment. Peptides were dissolved in Milli Q water and then serially diluted in culture medium. In most cases, the serially diluted peptides were added to the upper compartment of the chemotaxis chamber. The chamber was incubated at 37° C. in a humidified atmosphere of 5% CO2 for 4 hours.
(§3) After incubation, the cells were gently removed from the top of the filter with a pipette, 20 μl of 20 mM EDTA in PBS was added into each top well, and the mixture was incubated for 20 minutes at 4° C. The filter was then carefully flushed with media using a gentle flow, and removed. A standard curve was prepared to accurately quantify the number of THP-1 cells that had migrated. The curve was based on a two-fold dilution series of THP-1 cells (top standard 100,000 cells in 29 μl). Cells which had migrated, and in separate wells, the cells in the standards, were stained with 3 μl of MTT stock solution which was added directly into each well (5 mg/ml in RPMI 1640 without phenol red, Sigma Chemical Co.) and incubated at 37° C. for 4 hours. The media was carefully aspirated from each well, and the converted dye was solubilized by 20 μl of DMSO. Absorbance of converted dye was measured at a wavelength of 595 nm using an ELISA plate reader. The number of cells that had migrated in each well was determined by interpolation of the standard curve.

The subject of assay [2] is chemokine-induced THP-1 migration. The assay can be described thus: THP-1 trans-well migration assay, panel of chemokines (MCP-1, MIP1α, IL-8, SDF1α). The conditions noted are these: for effect on THP-1 migration induced by the chemokine panel, in words / Chemokine antagonist: MCP-1, MIP1α; for effect on THP-1 migration induced by the chemokine panel, in words: IL-8, SDF1α; for Chemokine antagonist: active against at least one of IL-8, SDF-1α; for CC SPECIFICITY: average inhibitory ED50 versus SDF1 and IL8 divided by average inhibitory ED50 versus MCP-1 and MIP1α.

In assay [3] the test system is IL8 induced THP-1 migration. Briefly: THP-1 trans-well migration assay, IL-8 as chemoattractant. As to conditions: tripeptide at 100 μM, mean ± range; dash = no statistically significant reduction in migration. As to the method:
as §1, §2, §3

The mark [4] stands for this setting: Homo sapiens, THP-1, agent with the cells in the upper compartment, n.s. = no statistically significant inhibition (p > 0.05), read-out: ED50 versus MCP-1, inhibition of THP-1 migration.
[5] abbreviates: average inhibitory ED50 for inhibition of THP-1 migration induced by each of the chemokines, read-out: AVERAGE ED50.
Setting [6] is: agent with the cells in the upper compartment, n.s. = no statistically significant inhibition (p > 0.05), read-out: ED50 versus MCP-1, inhibition of THP-1 migration.

Like-named read-outs stand apart in the source and are kept apart here. Positions of bridges follow the written chain, without caps; N, C: chain ends. No end group written: not given here. *: point of attachment. Biotin = O=C1N[C@H]2[C@H](CS[C@H]2CCCCC(=O)*)N1

As to `CCC1(c2ccccc2)CCC(=O)NC1=O` (stereo not drawn) [Glutethimide, reference compound], the EC50 in assay [1] (Homo sapiens, THP-1, read-out: ED50 versus MCP-1, inhibition of THP-1 migration) was found to be 50 µM.

On to `Cc1cc(C(C)(C)C)c(O)c(C)c1CC1=NCCN1` [Oxymetazoline, reference compound], for which, in assay [1] (setting [4]), the EC50 worked out at 75 µM.

Turning to `O=C1NC(=O)C(c2ccccc2)(c2ccccc2)N1` [Phenytoin, reference compound], the EC50 in assay [1] (setting [4]) was 10 µM.

Regarding `COC(=O)[C@@H]1[C@H]2C[C@H]3c4[nH]c5ccccc5c4CCN3C[C@@H]2CC[C@@H]1O` [Yohimbine, reference compound], in assay [1] (Homo sapiens, THP-1, read-out: ED50 versus MCP-1 induced chemotaxis of THP-1), the EC50 was found to be 0.03 µM.

As to `COC(=O)[C@H]1[C@H]2C[C@H]3c4[nH]c5ccccc5c4CCN3C[C@H]2CC[C@@H]1O` [α-Yohimbine, reference compound], the EC50 in assay [1] (read-out: ED50 versus MCP-1 induced chemotaxis of THP-1) came out at 0.5 µM.

For “-CQVWKQKPDAC-- (disulfide 1-11; not fully specified (some residues, C-terminus); printed as -CQVWKQKPDAC--; also: CRD: cyclic reverse-D derivative, D-residues shown in italics, not given here) [CRD-Cys13pep3[3-12]]”, the EC50 in assay [2] (setting [5]) is 0.8 µM.

APG [reference compound]: in assay [2], the “effect on THP-1 migration induced by the chemokine panel, in words” value (from here on “effect on THP-1 migration induced”) was “None of these significantly inhibited migration”.

As to CLDPKQKWIQC [unlabeled peptide], the EC50 in assay [1] (setting [6]) is around 9 µM.

As to GGR [reference compound], the “effect on THP-1 migration induced” value in assay [2] was “None of these significantly inhibited migration”.

Turning to KAK, in assay [2], the Chemokine antagonist entry is given as “+”.

Take KEN: the “percentage inhibition of migration induced by MCP-1” value in assay [1] (tripeptide at 100 μM, mean ± range of two experiments, dash = no statistically significant reduction in migration) is given as 21 ± 2^ %. Besides, the “percentage inhibition of migration induced by IL-8” value in assay [3] turned out to be 70 ± 4%. Also, in assay [2], the “CC SPECIFICITY” value was below 0.1. For the same molecule, in assay [2] (footnote f, KQK MCP-1, SEE MIP1α, KLK SDF1, KEN IL8, read-out: ED50 of a tripeptide against the one chemokine it is highly specific for), the EC50 is 0.1 to 10 µM.

For KNK, in assay [2], the Chemokine antagonist entry is “+++”.

For RGD [reference compound], in assay [2], the “effect on THP-1 migration induced” value is reported as “None of these significantly inhibited migration”.

TTT [reference compound]: the “effect on THP-1 migration induced” value in assay [2] is listed as “None of these significantly inhibited migration”.

As for WGQ, the EC50 in assay [1] (setting [6]) is around 1.75 µM.

Regarding WIQ, in assay [2] (setting [5]), the EC50 was found to be 2 µM. Moreover, in assay [2], the “CC SPECIFICITY” value was found to be 1.0.

In the case of “n′-CLDPKQKWIQC-c′ (Biotin-CLDPKQKWIQC; cysteine pairing not given here) [labeled peptide, N-terminal biotin conjugate]”, the EC50 in assay [1] (setting [6]) was around 4 µM.

The values above are taken from patent publication US7989466B2, “Methods to inhibit or augment an inflammatory response” (Cambridge Enterprise Limited, priority 1999, dated 2011).
